Measured values taken from PubChem BioAssay (NCI).
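Cells were grown in 96-well plates and exposed to each compound for 48 hours at five concentrations; endpoints were interpolated linearly between bracketing concentrations, or set to the highest concentration if not reached. TGI: total growth inhibition.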

Legend:
Assay in all cases: NCI tumour cell line growth inhibition, 48 h
786-0 renal = tested on: 786-0 renal
HT29 colon = tested on: HT29 colon
K-562 leukemia = tested on: K-562 leukemia
KM12 colon = tested on: KM12 colon
MALME-3M melanoma = tested on: MALME-3M melanoma
MOLT-4 leukemia = tested on: MOLT-4 leukemia
NCI-H226 lung = tested on: NCI-H226 lung
NCI-H460 lung = tested on: NCI-H460 lung
OVCAR-5 ovarian = tested on: OVCAR-5 ovarian
RXF 393 renal = tested on: RXF 393 renal
SF-295 CNS = tested on: SF-295 CNS
SF-539 CNS = tested on: SF-539 CNS
SK-MEL-5 melanoma = tested on: SK-MEL-5 melanoma
SN12C renal = tested on: SN12C renal
SNB-19 CNS = tested on: SNB-19 CNS
SNB-75 CNS = tested on: SNB-75 CNS
SW-620 colon = tested on: SW-620 colon
U251 CNS = tested on: U251 CNS
UACC-62 melanoma = tested on: UACC-62 melanoma
MDA-MB-435 = tested on: MDA-MB-435

SMILES | TGI (786-0 renal) | TGI (HT29 colon) | TGI (K-562 leukemia) | TGI (KM12 colon) | TGI (MALME-3M melanoma) | TGI (MOLT-4 leukemia) | TGI (NCI-H226 lung) | TGI (NCI-H460 lung) | TGI (OVCAR-5 ovarian) | TGI (RXF 393 renal) | TGI (SF-295 CNS) | TGI (SF-539 CNS) | TGI (SK-MEL-5 melanoma) | TGI (SN12C renal) | TGI (SNB-19 CNS) | TGI (SNB-75 CNS) | TGI (SW-620 colon) | TGI (U251 CNS) | TGI (UACC-62 melanoma) | TGI (MDA-MB-435)
O=C1C(Cl)=C(OCCCCl)C(=O)c2c(O)ccc(O)c21 | 4.81 µM | 5 µM | 1.7 µM | 29.1 µM | 3.6 µM | 1.86 µM | 30.8 µM | 27.2 µM | 26.4 µM | 4.38 µM | 18.3 µM | 8.97 µM | 3.33 µM | 5.1 µM | 32.5 µM | 3.91 µM | 4.29 µM | 13.8 µM | 3.9 µM | –
C=CCOc1ccc(/C(N=Nc2ccc(Cl)cc2)=N/NC(=O)c2ccccc2)cc1OC | > 100 µM | > 100 µM | – | > 100 µM | > 100 µM | > 100 µM | > 100 µM | > 100 µM | > 100 µM | – | > 100 µM | – | > 100 µM | > 100 µM | > 100 µM | > 100 µM | > 100 µM | > 100 µM | > 100 µM | > 100 µM
COc1ccc(/C=C2\NC(=S)N(CN3CCCCC3)C2=O)cc1 | > 100 µM | 41 µM | > 100 µM | > 100 µM | > 100 µM | > 100 µM | > 100 µM | – | > 100 µM | – | > 100 µM | – | > 100 µM | > 100 µM | > 100 µM | 79 µM | > 100 µM | > 100 µM | > 100 µM | > 100 µM
CC12CCC(CC1=O)C2(C)CCC(N)=O (configuration not stated) | > 100 µM | > 100 µM | > 100 µM | > 100 µM | > 100 µM | > 100 µM | > 100 µM | – | > 100 µM | > 100 µM | > 100 µM | – | > 100 µM | > 100 µM | > 100 µM | – | > 100 µM | > 100 µM | > 100 µM | > 100 µM
COc1ccc2nc(-n3c(/C=C/c4ccccc4O)nc4ccccc4c3=O)sc2c1 | > 100 µM | > 100 µM | 59.6 µM | > 100 µM | > 100 µM | > 100 µM | > 100 µM | > 100 µM | > 100 µM | > 100 µM | > 100 µM | – | 66.2 µM | – | > 100 µM | > 100 µM | > 100 µM | > 100 µM | > 100 µM | 49.2 µM
CCOC(=O)C1=[N+]([O-])OC2=C(O)CCCC21 (configuration not stated) | > 100 µM | > 100 µM | > 100 µM | > 100 µM | > 100 µM | > 100 µM | > 100 µM | > 100 µM | > 100 µM | > 100 µM | > 100 µM | – | > 100 µM | > 100 µM | > 100 µM | > 100 µM | > 100 µM | > 100 µM | > 100 µM | > 100 µM
